Measured values as given in US6528456B2, “Herbicidal 2-pyrazolyl-6-aryloxypyri(mi)dines” (BASF Aktiengesellschaft, priority 1999, dated 2003).

Assays:
Type in all cases: in vivo
Stellaria media = assay: Pre-emergence test; details: 3 weeks after treatment
Experimental: (§1) To evaluate their herbicidal activity, compounds according to the invention are tested using a representative range of plants: STEME Stellaria media The pre-emergence tests involve spraying a liquid formulation of the compound onto the soil in which the seeds of the plant species mentioned above has recently been sown. The soil used in the tests is a prepared horticultural loam. The formulations used in the tests are prepared from solutions of the test compounds in acetone containing 0.4% by weight of an alkylphenol/ethylene oxide condensate available under the trade mark TRITON X-155. These acetone solutions are diluted with water and the resulting formulations applied at dosage levels corresponding to 0.025 kg, 0.100 kg or 0.400 kg of active material per hectare in a volume equivalent to 900 litres per hectare. In these tests untreated sown soil are used as controls. From 2 to 4 weeks after treatment, the tests are terminated and each pot is examined and rated according to the rating system set forth below: [table]

Alopecurus myosuroides [1] = assay: Pre-emergence test; details: 3 weeks after treatment
Experimental: as §1, with “ALOMY Alopecurus myosuroides” for “STEME Stellaria media”

Alopecurus myosuroides [2] = assay: Post-emergence test; details: 2-4 weeks after treatment
Experimental: (§2) To evaluate their herbicidal activity, compounds according to the invention are tested using a representative range of plants: ALOMY Alopecurus myosuroides [table] […] These acetone solutions are diluted with water and the resulting formulations applied at dosage levels equivalent of about 0.1 to 0. 4 kg per hectare of test compound per pot. After spraying the plants are placed on greenhouse benches and are cared for in the usual manner, commensurate with conventional greenhouse practices. From 2 to 4 weeks after treatment, the seedling plants are examined and rated according to the rating system provided above.

Glycine max = assay: Pre-emergence test; details: 3 weeks after treatment
Experimental: To evaluate their herbicidal activity, compounds according to the invention are tested using a representative range of plants:
The pre-emergence tests involve spraying a liquid formulation of the compound onto the soil in which the seeds of the plant species mentioned above has recently been sown.
as §1, with “The” for “To evaluate their herbicidal activity, compounds according to the invention are tested using a representative range of plants: STEME Stellaria media The pre-emergence tests involve spraying a liquid formulation of the compound onto the soil in which the seeds of the plant species mentioned above has recently been sown. The”, “[table]” left out

Echinochloa crus-galli = assay: Pre-emergence test; details: 3 weeks after treatment
Experimental: as §1, with “ECHCG Echinochloa crus-galli” for “STEME Stellaria media”

Galium aparine = assay: Pre-emergence test; details: 3 weeks after treatment
Experimental: as §1, with “GALAP Galium aparine” for “STEME Stellaria media”

Abutilon theophrasti = assay: Post-emergence test; details: 2-4 weeks after treatment
Experimental: as §2, with “ABUTH Abutilon theophrasti” for “ALOMY Alopecurus myosuroides”

Zea mays = assay: Post-emergence test; details: 2-4 weeks after treatment
Experimental: as §2, with “ZEAMX Zea mays” for “ALOMY Alopecurus myosuroides”

SMILES | STEME herbicidal rating (Stellaria media; 0.025 kg/ha) | STEME herbicidal rating (Stellaria media; 0.100 kg/ha) | STEME herbicidal rating (Stellaria media; 0.400 kg/ha) | ALOMY herbicidal rating (Alopecurus myosuroides [1]; 0.025 kg/ha) | ALOMY herbicidal rating (Alopecurus myosuroides [1]; 0.100 kg/ha) | ALOMY herbicidal rating (Alopecurus myosuroides [1]; 0.400 kg/ha) | ALOMY herbicidal rating (Alopecurus myosuroides [2]; 0.1 kg/ha) | ALOMY herbicidal rating (Alopecurus myosuroides [2]; 0.4 kg/ha) | GLXMA herbicidal rating (Glycine max; 0.025 kg/ha) | GLXMA herbicidal rating (Glycine max; 0.100 kg/ha) | GLXMA herbicidal rating (Glycine max; 0.400 kg/ha) | ECHCG herbicidal rating (Echinochloa crus-galli; 0.025 kg/ha) | ECHCG herbicidal rating (Echinochloa crus-galli; 0.100 kg/ha) | ECHCG herbicidal rating (Echinochloa crus-galli; 0.400 kg/ha) | GALAP herbicidal rating (Galium aparine; 0.025 kg/ha) | GALAP herbicidal rating (Galium aparine; 0.400 kg/ha) | ABUTH herbicidal rating (Abutilon theophrasti; 0.1 kg/ha) | ABUTH herbicidal rating (Abutilon theophrasti; 0.4 kg/ha) | ZEAMX herbicidal rating (Zea mays; 0.1 kg/ha) | ZEAMX herbicidal rating (Zea mays; 0.4 kg/ha) | other results
Cc1cnc(-c2cc(C(F)(F)F)nn2C)nc1Oc1cc(C(F)(F)F)nn1C [Example 4, 2-(1-Methyl-3-trifluoromethylpyrazol-5-yl)-6-(1-methyl-3-trifluoromethylpyrazol-5-yloxy)-5-methylpyrimidine] | 9 (9 - Complete kill) | 9 (9 - Complete kill) | 9 (9 - Complete kill) | 2 (2 - Slight effect) | 6 (6 - Herbicidal effect) | 8 (8 - Approaching complete kill) | 5 (5 - Definite injury) | 7 (7 - Good herbicidal effect) | 2 (2 - Slight effect) | 3 (3 - Moderate effect) | 4 (4 - Injury) | 4 (4 - Injury) | 7 (7 - Good herbicidal effect) | 8 (8 - Approaching complete kill) | 1 (1 - Trace effect) | 8 (8 - Approaching complete kill) | 6 (6 - Herbicidal effect) | 7 (7 - Good herbicidal effect) | 2 (2 - Slight effect) | 4 (4 - Injury) | 
Cc1cc(Oc2cccc(C(F)(F)F)c2)nc(-c2cc(C(F)(F)F)nn2C)c1 [Example 63] |  | 3 (3 - Moderate effect) | 9 (9 - Complete kill) | 0 (0 - No effect) | 1 (1 - Trace effect) | 5 (5 - Definite injury) | 1 (1 - Trace effect) | 2 (2 - Slight effect) | 0 (0 - No effect) | 0 (0 - No effect) | 0 (0 - No effect) | 0 (0 - No effect) | 0 (0 - No effect) | 4 (4 - Injury) | 0 (0 - No effect) | 1 (1 - Trace effect) | 4 (4 - Injury) | 4 (4 - Injury) | 2 (2 - Slight effect) | 3 (3 - Moderate effect) | GALAP herbicidal rating (Galium aparine; 0.100 kg/ha): 0 (0 - No effect)
Cn1nc(C(F)(F)F)cc1Oc1cc(C#N)cc(-c2cc(C(F)(F)F)nn2C)n1 [Example 3, 4-Cyano-2-(1-methyl-3-trifluoromethylpyrazol-5-yloxy)-6-(1-methyl-3-trifluoromethylpyrazol-5-yl)pyridine] | 8 (8 - Approaching complete kill) | 9 (9 - Complete kill) | 9 (9 - Complete kill) | 2 (2 - Slight effect) | 3 (3 - Moderate effect) | 5 (5 - Definite injury) | 3 (3 - Moderate effect) | 4 (4 - Injury) | 0 (0 - No effect) | 1 (1 - Trace effect) | 3 (3 - Moderate effect) | 2 (2 - Slight effect) | 4 (4 - Injury) | 4 (4 - Injury) | 1 (1 - Trace effect) | 8 (8 - Approaching complete kill) | 4 (4 - Injury) | 5 (5 - Definite injury) | 2 (2 - Slight effect) | 4 (4 - Injury) | GALAP herbicidal rating (Galium aparine; 0.100 kg/ha): 4 (4 - Injury)
